Measurements: ChEMBL document CHEMBL1201862, “PubChem BioAssay data set” (2004)
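Exposure lasted 48 hours, with cells grown in 96-well plates and compounds tested at five concentrations. Abbreviation: GI50, concentration required for 50% inhibition of growth.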 Calls of active or inactive are those of the source. Cut-off read from the data, not from the text of the source: active = GI50 up to about 1.1 µM and inactive = higher.

Assays:
Assay in all cases: NCI anticancer screen, dose series, 48 h
[1] = test system: HOP-62
[2] = test system: SF-295
[3] = test system: SNB-19
[4] = test system: SK-OV-3
[5] = test system: RXF 393
[6] = test system: MDA-N
[7] = test system: OVCAR-3
[8] = test system: 786-0
[9] = test system: HCT-116
[10] = test system: NCI-H460
[11] = test system: SF-539
[12] = test system: SK-MEL-28
[13] = test system: SF-268
[14] = test system: COLO 205
[15] = test system: HCC 2998
[16] = test system: SW-620
[17] = test system: U-251
[18] = test system: LOX IMVI
[19] = test system: K562
[20] = test system: NCI-H23

Measured: GI50

COc1cc(/C=C2\N=C(c3ccccc3)N(c3nc4cc(C)c(C)cc4s3)C2=O)ccc1O
inactive: [1] 74.1 µM | [2] 66.8 µM | [3] 74 µM | [4] > 100 µM | [5] 20.4 µM | [6] 15.2 µM | [7] 23.7 µM | [8] 43 µM | [9] 19.3 µM | [10] 27.4 µM | [11] 29.4 µM | [12] 71.3 µM | [13] 44.8 µM | [14] 40.1 µM | [15] 27 µM | [16] 35.5 µM | [17] 30.8 µM | [18] 30.5 µM | [19] 35.3 µM

CC(=O)OC1CCC2(C)C(CCC3C2CC(=O)C2(C)C3CC(N3CC3)C2C(C)=O)C1 (configuration not stated)
inactive: [1] 24.5 µM | [2] 5.71 µM | [3] 20.9 µM | [5] 16.5 µM | [6] 21.8 µM | [7] 26.2 µM | [20] 16.7 µM | [8] 18.6 µM | [9] 20.7 µM | [10] 12.4 µM | [11] 11.8 µM | [12] 30.7 µM | [13] 11.6 µM | [14] 15.8 µM | [15] 15.4 µM | [16] 21.1 µM | [17] 17.2 µM | [18] 5.33 µM | [19] 15.2 µM

CCNc1nnc(-c2ccccc2Nc2ccccc2-c2nnc(NCC)s2)s1
inactive: [1] 22.2 µM | [2] 16.3 µM | [3] 27.4 µM | [4] 9.06 µM | [5] 21.6 µM | [6] 9.73 µM | [7] 18.3 µM | [20] 14 µM | [8] 11 µM | [9] 9.89 µM | [10] 5.66 µM | [12] 18.4 µM | [13] 13.4 µM | [14] > 32.8 µM | [15] 11.6 µM | [16] 19.4 µM | [17] 11.4 µM | [18] 8.05 µM | [19] 37.2 µM

Cc1cn(C2OC(CO[Si](C)(C)C(C)(C)C)/C(=C\C#N)C2O[Si](C)(C)C(C)(C)C)c(=O)[nH]c1=O (configuration not stated)
inactive: [1] 63.7 µM | [2] 6.67 µM | [3] > 100 µM | [4] > 100 µM | [5] 7.53 µM | [6] > 100 µM | [7] 7.73 µM | [20] > 100 µM | [8] 58.1 µM | [9] 22.9 µM | [10] 8.83 µM | [11] 6.75 µM | [12] > 100 µM | [13] 92.5 µM | [14] 12.5 µM | [16] > 100 µM | [17] 38.4 µM | [18] 19.5 µM | [19] 1.93 µM

CC(C)N(C(=O)c1ccc(NCc2cc(O)ccc2O)cc1)C(C)C
inactive: [1] 25.5 µM | [2] 21.1 µM | [3] 19.2 µM | [4] 35.3 µM | [5] 13.1 µM | [6] 17.7 µM | [7] 11.6 µM | [20] 17.9 µM | [8] 13 µM | [9] 15.5 µM | [10] 18.2 µM | [11] 12.9 µM | [12] 16.9 µM | [13] 17.6 µM | [14] 30.4 µM | [16] 21.5 µM | [17] 15.8 µM | [18] 14.7 µM | [19] 20.4 µM

CC(=O)Oc1ccc2cc(Oc3ccc(Cl)cc3)c(=O)oc2c1
inactive: [1] 58.2 µM | [2] 33.6 µM | [3] 60.4 µM | [5] 46.9 µM | [6] 25.6 µM | [7] 19.2 µM | [20] 41.4 µM | [8] 36.1 µM | [9] 27.5 µM | [10] 40.7 µM | [11] 33.3 µM | [12] 41.5 µM | [13] 53.8 µM | [15] 35.8 µM | [16] 40.8 µM | [17] 42.8 µM | [18] 37.9 µM

Cn1c(=O)c2c(nc(NCCNc3nc4c(c(=O)n(C)c(=O)n4C)n3C)n2C)n(C)c1=O
inactive: [1] > 100 µM | [2] > 100 µM | [3] > 100 µM | [5] > 100 µM | [6] > 100 µM | [7] > 100 µM | [20] > 100 µM | [8] > 100 µM | [9] > 100 µM | [10] > 100 µM | [12] > 100 µM | [13] > 100 µM | [15] > 100 µM | [16] > 100 µM | [17] > 100 µM | [18] > 100 µM | [19] > 100 µM

O=S(=O)(O)c1cccc2cccc(/N=N/c3c(O)ccc4ccccc34)c12
inactive: [1] > 100 µM | [2] > 100 µM | [3] > 100 µM | [4] > 100 µM | [5] > 100 µM | [6] > 100 µM | [7] > 100 µM | [20] > 100 µM | [8] > 100 µM | [9] > 100 µM | [10] > 100 µM | [11] > 100 µM | [13] > 100 µM | [14] > 100 µM | [15] > 100 µM | [16] > 100 µM | [17] > 100 µM | [19] > 100 µM
